Measurements as given in patent US20100069340A1, “PHARMACEUTICAL COMPOSITIONS OF AN SRC KINASE INHIBITOR AND AN AROMATASE INHIBITOR” (Wyeth, priority 2008, published 2010).

How the values were obtained:
[1] = tested on: MCF7; experiment: Cell proliferation assay (CellTiter Glo), MCF7; type: cell-based
Description: (§1) Cell lines were obtained from ATCC. Estrogen was obtained from SIGMA, 4-hydroxytamoxifen was obtained from SIGMA, Bosutinib was used for these studies. Charcoal-stripped serum and phenol red-free medium was obtained from Invitrogen. CellTiter Glo was obtained from Promega.
(§2) Cell cultures. Proliferation assays with cells in complete fetal calf serum were performed with medium containing phenol red. For all assays examining estrogen-dependence, cells were cultured in phenol red-free medium; DMEM/F12 (MCF7), RPMI1640 (MDA-MB-361, T47D) MEM (BT20, MDA-MB-231) McCoys5A modified (SKBR3), Leibowitz' L15 medium supplemented with 10 ng/mL insulin (MDA-MB-435 and MDA-MB-468) with 10% fetal bovine serum supplemented with glutamine and gentamicin. For proliferation assays, trypsinized cells were subjected to three cycles of centrifugation and resuspension in phenol red-free medium supplemented with charcoal stripped medium (5% final), glutamine and Pen/Strep. Cells were plated on day 0, with or without estrogen (10 nM final concentration). On day 1, 4-hydroxytamoxifen and SKI-606 or DMSO were added as a serial dilution. Cells were incubated for 7 days, after which CellTiter Glo (Promega) was added as recommended by the manufacturer. After mixing and two hours incubation on the bench, plates were read on an Envision reader. […] The 10 uM data point was dropped for these two lines since there was a clear plateau prior to the sharp drop in luminescence observed at 10 uM compound. The IC50 was calculated using a floating minima corresponding to the lowest luminescence value at 5 uM.
(§3) Cell proliferation assays were performed in two formats; a three day proliferation assay in fully supplemented medium with phenol red, and a 7 day proliferation assay in phenol red free medium supplemented with charcoal-stripped medium. […] ER positive T47D cells were slightly more sensitive to SKI-606 in the presence of estrogen. BT20 cells were equally sensitive to SKI-606 in stripped serum medium, regardless of whether estrogen was present.
(§4) Proliferation data for SKI-606 in various breast tumor lines in complete medium (10% FCS) and charcoal stripped serum with no phenol red (no E2, E2) with and without 10 nM estrogen. The complete medium data were obtained in 3-day assays, while stripped serum assays were extended for 7 days with one change of medium at day 5. The IC50 values for the BT20 line was calculated using the “plateau” cell number evident at 5 μM SKI-606.

[2] = tested on: MDA-MB-361; experiment: Cell proliferation assay (CellTiter Glo), MDA-MB-361; type: cell-based
Description: as §1, §2, §3, §4

4-hydroxytamoxifen was tested, and the estrogen-independent cell proliferation ([1]; MCF7, absence of estrogen) was “inhibits”, the “effect on estrogen-stimulated proliferation” value ([1]; MCF7, presence of estrogen) was “inhibited in a dose-dependent manner” and the “cell proliferation in the absence of estrogen” value ([2]; MDA-MB-361, absence of estrogen) was “little effect”. For the same substance, the “effect on estrogen-stimulated proliferation” value ([2]; MDA-MB-361, presence of estrogen) was “inhibited in a dose-dependent manner”.
